Series [1] can be described thus: Compound toxicity, ATPLite total ATP levels. Type of series: cell-based. To be noted: human, HepG2 cells; concentration reducing total ATP levels by 50% relative to no drug controls; ATPLite three days after compound addition. The method, then: Compound toxicity is evaluated by seeding cells at 15,000 cells/well and treating with compound as described above.
For a further series, the system named is HBV. In words: HepAD38 anti-HBV assay: reduction of viral product accumulation (virion DNA qPCR, HBsAg/HBeAg ELISA). The class given is cell-based. To be noted: Hepatitis B virus, 120 h; HepAD38 cells; concentration reducing viral product accumulation by 50% relative to no drug controls; harvest five days after compound addition; read-out: HepAD38 EC50. Summed up:
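EC50 values reflect 50% reduction, relative to untreated controls, in virion DNA (qPCR) or HBsAg/HBeAg (ELISA) from lysates or supernatants. Washed HepAD38 cells without tetracycline were exposed to compound for 5 days. In the 8-day variant, medium and compound were renewed on days 2 and 5.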

In series [1], `O=S(=O)(N[C@H]1CC2=C(c3ccn(C(F)F)n3)[C@H](c3ccc(F)cc3Cl)N=C(c3nccs3)N2C1)N1CCC(O)(C(O)CO)CC1` (stereo partly shown) [Example 96] registered a CC50 at 3 days above 25 µM. Also, in the series with HBV, the EC50 was below 0.1 µM.
The matching figures for `O=C1NC2(CO1)CN(S(=O)(=O)N[C@H]1CC3=C(c4ccn(C(F)F)n4)[C@H](c4ccc(F)cc4Cl)N=C(c4nccs4)N3C1)C2` [Example 358]: above 25 µM and below 0.1 µM.
Taken in the same sequence, the figures for `O=S(=O)(N[C@H]1CC2=C(c3ccn(C(F)F)n3)[C@H](c3ccc(F)cc3Cl)N=C(c3nccs3)N2C1)N1CCC(O)(c2cccnc2)CC1` [Example 264] were above 25 µM and below 0.1 µM.
The matching figures for `O=S(=O)(N[C@H]1CC2=C(c3ccn(C(F)F)n3)[C@H](c3ccc(F)cc3Cl)N=C(c3nccs3)N2C1)N1CCCCC12CCC2` [Example 285]: above 25 µM and below 0.1 µM.
`O=S(=O)(N[C@H]1CC2=C(c3ccn(C(F)F)n3)[C@H](c3ccc(F)cc3Cl)N=C(c3nccs3)N2C1)N1CC(O)(c2ccccn2)C1` [Example 269]: the 50% cytotoxic concentration (CC50) at 3 days in series [1] was above 25 µM. The EC50 in the series with HBV was below 0.1 µM.
Taken in the same sequence, the figures for `O=S(=O)(CCCCO)N[C@H]1CC2=C(c3ccn(C(F)F)n3)[C@H](c3ccc(F)cc3Cl)N=C(c3nccs3)N2C1` [Example 280] were above 25 µM and below 0.1 µM.
The matching figures for `O=C(N[C@H]1CC2=C(c3ccn(C(F)F)n3)[C@H](c3ccc(F)cc3Cl)N=C(c3nccs3)N2C1)c1nccs1` [Example 235]: above 25 µM and below 0.1 µM.
In series [1], `O=S(=O)(N[C@H]1CC2=C(c3ccn(C(F)F)n3)[C@H](c3ccc(F)cc3Cl)N=C(c3nccs3)N2C1)c1ccc(C(O)c2ccccn2)cc1` (stereo partly shown) [Example 334] gave a half-maximal cytotoxic concentration (CC50) at 3 days below 10 µM. Further, the half-maximal effective concentration (EC50) in the series with HBV is below 0.1 µM.
The matching figures for `O=S(=O)(NCCO)N[C@H]1CC2=C(c3ccn(C(F)F)n3)[C@H](c3ccc(F)cc3Cl)N=C(c3nccs3)N2C1` [Example 78]: above 25 µM and below 0.1 µM.
The matching figures for `C[C@]1(O)CC[C@@H](c2ccc(S(=O)(=O)N[C@H]3CC4=C(c5ccn(C(F)F)n5)[C@H](c5ccc(F)cc5Cl)N=C(c5nccs5)N4C3)cc2)CC1` [Example 410]: above 25 µM and below 0.1 µM.
Taken in the same sequence, the figures for `O=S(=O)(N[C@H]1CC2=C(c3ccn(C(F)F)n3)[C@H](c3ccc(F)cc3Cl)N=C(c3nccs3)N2C1)c1cccc(C(O)c2ccccn2)c1` (stereo partly shown) [Example 339] were above 25 µM and below 0.1 µM.
`O=S1(=O)CCN(S(=O)(=O)N[C@H]2CC3=C(c4ccn(C(F)F)n4)[C@H](c4ccc(F)cc4Cl)N=C(c4nccs4)N3C2)CC1` [Example 150]: the CC50 at 3 days in series [1] is above 25 µM. Further, the EC50 in the series with HBV is below 0.1 µM.
Molecule `O=S(=O)(N[C@H]1CC2=C(c3ccn(C(F)F)n3)[C@H](c3ccc(F)cc3Cl)N=C(c3nccs3)N2C1)N[C@H]1C[C@@H](O)C1` [Example 156] returned a CC50 at 3 days in series [1] above 25 µM. For the same molecule, the EC50 in the series with HBV is below 0.1 µM.
The matching figures for `O=S(=O)(N[C@H]1CC2=C(c3ccn(C(F)F)n3)[C@H](c3ccc(F)cc3Cl)N=C(c3nccs3)N2C1)c1ccc([C@H]2CC[C@H](O)CC2)cc1` [Example 381]: 10 to 25 µM and below 0.1 µM.
The matching figures for `O=S(=O)(N[C@H]1CC2=C(c3ccn(C(F)F)n3)[C@H](c3ccc(F)cc3Cl)N=C(c3nccs3)N2C1)c1cccnc1` [Example 365]: above 25 µM and below 0.1 µM.
Taken in the same sequence, the figures for `O=S(=O)(N[C@H]1CC2=C(c3ccn(C(F)F)n3)[C@H](c3ccc(F)cc3Cl)N=C(c3nccs3)N2C1)N1CCC(CO)CC1` [Example 88] were above 25 µM and below 0.1 µM.
In series [1], `O=S(=O)(N[C@H]1CC2=C(c3ccn(C(F)F)n3)[C@H](c3ccc(F)cc3Cl)N=C(c3nccs3)N2C1)N1CCC(O)(C2CC2)CC1` [Example 270] had a CC50 at 3 days below 10 µM. In addition, the EC50 with HBV was below 0.1 µM.

Broadly, the CC50 is the concentration that lowers cell viability or growth by half. High values mean better tolerance by the cells, low ones harm at low concentration. One may read the EC50 as the concentration at which the effect is half-maximal.

The record behind these values is patent publication US11472808B2, “Substituted pyrrolo[1,2-c]pyrimidines as hepatitis B antiviral agents” (Enanta Pharmaceuticals, Inc., priority 2019, dated 2022).
